Patent publication US7112594B2, “Fused bicyclic amide compounds and medicinal use thereof” (Mitsubishi Pharma Corporation, priority 2000, dated 2006)

Legend:
[1] = tested on: type II collagen induced arthritis; test: Type II collagen induced arthritis in DBA/1J mouse; type: in vivo; settings: repeated oral administration
rat lymphocytes = test: Proliferation of rat lymphocytes stimulated by PMA and calcium ionophore A23187 (tritium thymidine uptake); type: cell-based; settings: Lymphocyte, PMA 10 ng/ml and A23187 100 ng/ml
Protocol: An RPMI1640 medium (Sigma) was used as a medium, to which kanamycin sulfate (60 μg/ml) and penicillin G potassium (100 units/ml) were added, and then 10% of fetal calf serum (FCS, Gibco) inactivated at 56° C. for 30 min was added and used for the test. The compound of the present invention or a pharmaceutically acceptable salt thereof was dissolved in dimethyl sulfoxide and diluted with the 10% FCS-containing RPMI1640 medium to a desired concentration and used for the test.
The spleens were aseptically removed from 6-week-old male F344 rats or LEW rats (Charles River Japan, Inc.) and minced with tweezers in RPMI1640 medium and then prepared into a single cell suspension of splenic cell. After hematolysis by a hypotonicity treatment using a 9:1 mixed solution of 0.83% aqueous ammonium chloride solution and Tris-HCl buffer (pH 7.65), the suspension was passed through a nylon wool column to give nylon non-adhesive T cell concentration fraction for use. The cell suspension prepared using 10% FCS-containing RPMI1640 medium was added to a flat 96 well microtest plate at 5×10^5 cells/well. The compound of the present invention or a pharmaceutically acceptable salt thereof at a concentration of 0.0001-100 μM, 10 ng/ml of PMA and 100 ng/ml of A23187 were added and the mixture was cultured at 37° C., 5% carbon dioxide and 95% air for 44 hr. After the completion of the culture, tritium thymidine (18.5 kBq/well, specific activity: 185 GBq/mmol, Amersham Pharmacia Biotech) was added and the mixture was cultured at 37° C., 5% carbon dioxide, 95% air for further 4 hr. Then using a cell harvester, the cells were recovered on a glass fiber filter, and using a scintillation counter (MicroBeta 1460) for plate, the radioactivity taken into the cells was measured, and the proliferation of rat lymphocyte induced by stimulation with PMA and A23187 was measured. To be specific, the inhibition rate was calculated by the following formula based on average tritium thymidine uptake (cpm) by lymphocyte in the wells to which various concentrations of the compound of the present invention were added. [formula]
Based on the dose-response curve obtained by plotting average value of tritium thymidine uptake (cpm) or inhibition rate in the longitudinal axis and concentration in the horizontal axis, the concentration (IC50) of the compound that inhibits the level to 50% of the value of the control group was determined by nonlinear regression.

Cc1c(C(=O)Nc2ccc(C(F)(F)F)cc2)cnn1-c1ccc(F)cc1 [1-(4-fluorophenyl)-N-(4-trifluoromethylphenyl)-5-methylpyrazole-4-carboxamide]
improvement of severity of developed arthritis, swelling of the limbs or destruction of joint ([1]; 10 mg/kg body weight): did not improve | death ([1]; 30 mg/kg body weight): confirmed death

Cc1[nH]c2ccc(F)cc2c1C(=O)Nc1ccc(Oc2ccccc2)c(C#N)c1 [Example 6, N-(3-cyano-4-phenoxyphenyl)-5-fluoro-2-methyl-1H-indole-3-carboxamide]
IC50 (rat lymphocytes): 390 nM

N#Cc1cc(NC(=O)c2cc3ccccc3s2)ccc1N1CCN(CCO)CC1 [Example 11, N-[3-cyano-4-(4-(2-hydroxyethyl)piperazin-1-yl)phenyl]benzo[b]thiophene-2-carboxamide]
IC50 (rat lymphocytes): 1500 nM

N#Cc1cc(NC(=O)c2cc3ccccc3o2)ccc1N1CCC(CCO)CC1 [Example 20, N-{3-cyano-4-[4-(2-hydroxyethyl)piperidin-1-yl]phenyl}benzo[b]furan-2-carboxamide]
IC50 (rat lymphocytes): 230 nM

CC(C)c1ccc2c(O)c(C(=O)Nc3ccc(OCC(C)(C)C)c(C#N)c3)sc2n1 [Example 28, N-(3-cyano-4-neopentyloxyphenyl)-3-hydroxy-6-isopropylthieno[2,3-b]pyridine-2-carboxamide]
IC50 (rat lymphocytes): 2000 nM
